Three compounds from patent US9120820B2, “Fluorescent molecular probes for use in assays that measure test compound competitive binding with SAM-utilizing proteins” (CAYMAN CHEMICAL COMPANY, INCORPORATED, priority 2011, dated 2015) can be followed below.

Molecules are shown by their SMILES.

One assay addresses T1, PRMT4 (Homo sapiens, UniProt Q86X55).
T1 construct: made in house
T1 sequence (Q86X55 1-608): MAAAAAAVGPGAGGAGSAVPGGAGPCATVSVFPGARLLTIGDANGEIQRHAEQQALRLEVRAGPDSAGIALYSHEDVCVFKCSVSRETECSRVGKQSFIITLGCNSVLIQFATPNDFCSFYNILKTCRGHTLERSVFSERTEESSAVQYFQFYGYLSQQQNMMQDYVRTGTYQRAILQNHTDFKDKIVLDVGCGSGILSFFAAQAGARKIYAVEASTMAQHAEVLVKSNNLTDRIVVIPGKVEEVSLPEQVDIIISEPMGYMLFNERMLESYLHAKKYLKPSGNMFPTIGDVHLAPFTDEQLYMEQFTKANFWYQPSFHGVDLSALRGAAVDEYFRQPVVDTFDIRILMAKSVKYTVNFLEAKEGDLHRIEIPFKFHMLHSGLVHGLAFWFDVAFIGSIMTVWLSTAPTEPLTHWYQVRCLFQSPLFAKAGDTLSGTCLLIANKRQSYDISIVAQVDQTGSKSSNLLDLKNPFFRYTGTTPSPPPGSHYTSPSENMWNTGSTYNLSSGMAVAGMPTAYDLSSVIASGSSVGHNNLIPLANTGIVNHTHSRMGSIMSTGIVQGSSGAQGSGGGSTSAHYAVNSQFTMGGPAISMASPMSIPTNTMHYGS
As to the kind of experiment: Radiometric methyltransferase assay, PRMT4. The format is biochemical. The settings on record: PRMT4 150 nM; compound 10 μM, 1 μM, or 0.1 μM; FIG. 13. As to the method:
(§1) Reagents: Compound 16A was prepared by the method described in Example 4 and illustrated in FIG. 5. The Compounds 20A-iv and 20A-iii were prepared according to methods described in Example 6 and illustrated in FIG. 7. Enzymes were obtained from the Cayman Catalog with the exception of PRMT4 and PRMT6, which were produced in baculovirus and purified to near homogeneity using Ni-affinity chromatography. Human core histones were purified from HeLa nuclear pellet per the method of Coté et al. S-adenosylmethionine (SAM) was obtained from Sigma-Aldrich (Cat #A7007) and S-[methyl-3H]-SAM was obtained from Perkin-Elmer ([…]). Methods: […] To this was added enzyme diluted to provide a final assay concentration (GLP: 10 nM; PRMT1: 100 nM; SET7/9: 120 nM; PRDM9: 120 nM; PRMT4: 150 nM; PRMT6: 120 nM; G9a: 200 nM) and the compound was allowed to preincubate for 10 minutes at room temperature. […] Samples were mixed immediately after quenching and transferred to a 96-well GFC Uni-Filter microtiter filter plate (Perkin Elmer, Cat#6005174) that contained 50 μl of 20% TCA. Samples were allowed to precipitate for at least 5 minutes at room temperature. The samples were filtered onto the GFC membrane and washed four times with 100 μl of 10% TCA and once with 100 μl of 95% EtOH. To each well was added 25 μl of MicroScint-20 (Perkin-Elmer Cat#6013621) and samples were analyzed using a TopCount NXT microplate scintillation counter. The experiment was performed one time in duplicate for all compound concentrations tested and in triplicate for the vehicle and no enzyme controls. All data was analyzed in GraphPad Prism (v. 5.04).

For the next assay, the target named is T2, G9a (Homo sapiens, UniProt Q96KQ7).
T2 construct: purchased Cayman 49010353
T2 sequence (Q96KQ7 1-1210): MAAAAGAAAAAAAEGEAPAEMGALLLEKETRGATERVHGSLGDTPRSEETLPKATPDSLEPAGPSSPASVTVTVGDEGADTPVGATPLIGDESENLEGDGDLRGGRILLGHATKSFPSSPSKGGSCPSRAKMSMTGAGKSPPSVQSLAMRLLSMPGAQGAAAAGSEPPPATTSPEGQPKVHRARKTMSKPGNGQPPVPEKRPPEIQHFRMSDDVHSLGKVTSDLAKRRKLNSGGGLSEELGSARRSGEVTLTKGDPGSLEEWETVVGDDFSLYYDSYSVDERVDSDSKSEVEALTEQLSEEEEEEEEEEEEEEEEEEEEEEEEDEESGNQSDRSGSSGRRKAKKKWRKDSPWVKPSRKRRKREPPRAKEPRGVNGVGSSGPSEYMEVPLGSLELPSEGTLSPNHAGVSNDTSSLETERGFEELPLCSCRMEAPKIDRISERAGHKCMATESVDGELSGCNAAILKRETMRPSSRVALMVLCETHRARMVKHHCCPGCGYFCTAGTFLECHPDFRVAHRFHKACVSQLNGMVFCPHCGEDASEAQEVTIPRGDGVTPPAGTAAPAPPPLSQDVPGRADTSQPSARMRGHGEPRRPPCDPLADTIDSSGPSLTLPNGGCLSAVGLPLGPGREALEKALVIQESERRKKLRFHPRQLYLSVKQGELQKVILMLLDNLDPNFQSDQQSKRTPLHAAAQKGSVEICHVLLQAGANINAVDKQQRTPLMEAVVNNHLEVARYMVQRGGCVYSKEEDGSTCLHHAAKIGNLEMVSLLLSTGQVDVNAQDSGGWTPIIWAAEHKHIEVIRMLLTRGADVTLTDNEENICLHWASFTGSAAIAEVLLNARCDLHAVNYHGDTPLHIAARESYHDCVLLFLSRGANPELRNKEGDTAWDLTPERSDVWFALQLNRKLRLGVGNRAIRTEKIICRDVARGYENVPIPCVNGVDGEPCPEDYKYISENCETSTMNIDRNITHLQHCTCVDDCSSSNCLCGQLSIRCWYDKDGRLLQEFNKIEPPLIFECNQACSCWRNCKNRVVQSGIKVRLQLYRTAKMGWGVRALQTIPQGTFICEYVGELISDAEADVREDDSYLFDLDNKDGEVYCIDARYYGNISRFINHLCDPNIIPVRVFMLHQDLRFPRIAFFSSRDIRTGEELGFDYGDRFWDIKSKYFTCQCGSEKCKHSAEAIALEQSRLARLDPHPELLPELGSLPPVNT
Kind of assay: Radiometric methyltransferase assay, G9a. Format: biochemical. The settings on record: G9a 200 nM; compound 10 μM, 1 μM, or 0.1 μM; FIG. 13. As to the method:
as §1

Consider `CSC[C@H]1O[C@@H](n2cnc3c(N)nc(NCCNC(=O)OC(C)(C)C)nc32)[C@H](O)[C@@H]1O` [Compound 16A, tert-butyl (2-((6-amino-9-((2R,3R,4S,5S)-3,4-dihydroxy-5-((methylthio)methyl)tetrahydrofuran-2-yl)-9H-purin-2-yl)amino)ethyl)carbamate], for which the “inhibition of enzymatic activity” value on PRMT4 and against G9a was “inhibits” in each case.
As to `CCNC(=O)[C@H]1O[C@@H](n2cnc3c(N)nc(Cl)nc32)[C@H](O)[C@@H]1O` [Compound 20A-iii, 2-chloroadenosine-5′-N-ethylcarboxamide], the “inhibition of enzymatic activity” value on PRMT4 and against G9a was “did not show appreciable inhibition” each time.
`CCNC[C@H]1O[C@@H](n2cnc3c(N)nc(Cl)nc32)[C@H](O)[C@@H]1O` [Compound 20A-iv, 2-chloroadenosine-5′-N-ethylamine]: the “inhibition of enzymatic activity” value against PRMT4 and at G9a was “did not show appreciable inhibition” throughout.
